One assay concerns the target T1, 3H-Spiperone receptors (Bos taurus, UniProt P20288).
T1 construct: Fresh calf brain striatal tissue is homogenized; from tissue; host or cells: calf brain striatum membranes
Briefly: binding to 3H-Spiperone receptors, modified test from J. Leysen et al. The note with it: calf brain striatal tissue; 0.1 nM 3H-Spiperone; 5×10^-7 M Cinanserin; pH 7.7; 40 min at room temperature; read-out: IC50 in the neuroleptic test from J. Leysen (inhibition of specific Spiperone binding).

Assay [1] deals with spontaneous motor activity in male mice. Briefly: inhibition of spontaneous motor activity in male mice (Caviezel and Baillod). Format: in vivo, mouse. The following applies: p.o. Here is the method:
In particular, the compounds of the invention are useful as neuroleptic agents in the treatment of e.g. psychotic disturbances such as schizophrenia, as indicated in standard tests, e.g. by an inhibition of spontaneous motor activity in male mice on p.o. administration of from about 1 to about 50 mg/kg animal body weight of the compounds e.g. in accordance with the principles of Caviezel and Baillod (Pharm. Acta Helv. (1958), 33, 465-484).

The term IC50 denotes the point on the concentration scale where inhibition reaches its midpoint.

T1 sequence (P20288 whole entry): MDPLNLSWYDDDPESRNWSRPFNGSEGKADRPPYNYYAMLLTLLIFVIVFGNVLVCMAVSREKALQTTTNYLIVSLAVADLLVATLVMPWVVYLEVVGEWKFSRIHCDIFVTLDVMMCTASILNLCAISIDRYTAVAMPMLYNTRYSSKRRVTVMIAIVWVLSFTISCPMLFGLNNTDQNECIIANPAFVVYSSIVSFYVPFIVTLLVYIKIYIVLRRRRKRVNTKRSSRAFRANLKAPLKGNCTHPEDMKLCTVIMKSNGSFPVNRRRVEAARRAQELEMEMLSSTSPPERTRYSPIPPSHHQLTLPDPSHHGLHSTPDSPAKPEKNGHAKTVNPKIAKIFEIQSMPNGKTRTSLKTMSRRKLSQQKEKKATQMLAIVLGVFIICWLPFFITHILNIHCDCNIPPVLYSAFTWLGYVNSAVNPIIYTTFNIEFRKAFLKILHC
Procedure for 3H-Spiperone receptors: Fresh calf brain striatal tissue is homogenized in a 25 fold volume of Tris buffer (50 mM, pH 7.7, 120 mM sodium chloride) and centrifuged. The pellets are resuspended in a 22 fold volume of the Tris buffer, incubated for 15 min. at 37° C., recentrifuged and the pellets resuspended in a 300 fold volume of the Tris buffer. […] After incubation for 40 min. at room temperature, the assay mixtures are rapidly filtered through Whatman GF/B filters and washed twice with 5 ml of ice cold Tris buffer and then scintillation-counted.

Take `CN1CCC(N2Cc3cc(Cl)ccc3Cc3ccccc32)CC1` [Example 1, 8-Chloro-5,6-dihydro-5-(1-methyl-4-piperidinyl)-11H-dibenz[b,e]azepine]: the half-maximal inhibitory concentration (IC50) at 3H-Spiperone receptors amounted to 100 nM. Besides, in assay [1], the “activity in inhibiting spontaneous motor activity, compared with Clozapine” value is recorded as “comparable to that of Clozapine”.

For the origin of these results see US4434171A, “Dibenzazepine derivatives, pharmaceutical compositions containing them, and pharmaceutical methods using them” (Sandoz Ltd., priority 1980, dated 1984).
